Test [1] addresses T1, Nitric oxide synthase, inducible (Homo sapiens, UniProt P35228). Nature of the test: Inhibition of cloned (from RNA) human inducible nitric oxide synthase (hiNOS).
In test [2] the target is T2, Nitric oxide synthase 1 (Homo sapiens, UniProt P29475). Nature of the test: Inhibition of cloned (from RNA) human Neuronal nitric oxide synthase.
The next test concerns the target T3, Nitric oxide synthase 3 (Homo sapiens, UniProt P29474).
T3 sequence (P29474 whole entry): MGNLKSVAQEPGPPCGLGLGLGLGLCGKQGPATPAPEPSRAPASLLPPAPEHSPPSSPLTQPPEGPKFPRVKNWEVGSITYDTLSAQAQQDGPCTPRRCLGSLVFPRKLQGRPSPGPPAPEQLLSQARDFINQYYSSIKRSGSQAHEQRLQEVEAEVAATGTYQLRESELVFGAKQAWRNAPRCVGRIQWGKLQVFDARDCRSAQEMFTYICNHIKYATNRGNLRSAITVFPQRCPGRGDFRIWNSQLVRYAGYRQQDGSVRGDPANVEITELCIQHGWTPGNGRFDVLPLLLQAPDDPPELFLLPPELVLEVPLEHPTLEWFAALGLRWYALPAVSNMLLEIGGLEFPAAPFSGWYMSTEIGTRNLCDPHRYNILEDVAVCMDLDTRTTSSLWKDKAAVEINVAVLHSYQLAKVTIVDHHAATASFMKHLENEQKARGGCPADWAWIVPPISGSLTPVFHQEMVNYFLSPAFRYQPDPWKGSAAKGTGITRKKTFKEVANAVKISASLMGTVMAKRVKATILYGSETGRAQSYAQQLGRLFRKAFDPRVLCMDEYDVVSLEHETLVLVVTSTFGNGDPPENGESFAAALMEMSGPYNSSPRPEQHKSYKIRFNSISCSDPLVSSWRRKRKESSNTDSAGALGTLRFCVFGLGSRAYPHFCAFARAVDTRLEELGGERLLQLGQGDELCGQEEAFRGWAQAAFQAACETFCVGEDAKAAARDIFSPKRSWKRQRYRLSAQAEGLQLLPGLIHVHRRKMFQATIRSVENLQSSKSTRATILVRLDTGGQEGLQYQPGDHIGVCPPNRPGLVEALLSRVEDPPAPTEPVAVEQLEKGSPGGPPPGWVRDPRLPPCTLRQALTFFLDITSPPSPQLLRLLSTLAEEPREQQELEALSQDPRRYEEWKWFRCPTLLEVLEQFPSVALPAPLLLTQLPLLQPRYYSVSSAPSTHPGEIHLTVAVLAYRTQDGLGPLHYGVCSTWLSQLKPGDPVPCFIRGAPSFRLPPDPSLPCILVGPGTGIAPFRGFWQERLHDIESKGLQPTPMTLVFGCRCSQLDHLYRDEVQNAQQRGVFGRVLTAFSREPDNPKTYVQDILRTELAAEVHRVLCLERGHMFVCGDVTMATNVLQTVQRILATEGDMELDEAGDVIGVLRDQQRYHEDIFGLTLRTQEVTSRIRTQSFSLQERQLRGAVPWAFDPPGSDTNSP
Put plainly: Inhibition of cloned (from RNA) human endothelial constitutive Endothelial nitric oxide synthase (heNOS).

Test [3] has as its target T1, Nitric oxide synthase, inducible. Nature of the test: Inhibition of cloned (from RNA) human inducible nitric oxide synthase (hiNOS) at 100 uM.
Test [4] has as its target T4, Nitric oxide synthase 3 (Homo sapiens) (UniProt P29474).
T4 sequence (whole entry): T3 sequence (P29474 whole entry)
Nature of the test: Inhibition of cloned (from RNA) human endothelial constitutive Endothelial nitric oxide synthase (heNOS) at 100 uM.

Test [5] concerns the target T2, Nitric oxide synthase 1. Nature of the test: Inhibition of cloned (from RNA) human Neuronal nitric oxide synthase at 100 uM.
Test [6] addresses T1, Nitric oxide synthase, inducible. Put plainly: Inhibition of cloned (from RNA) human inducible nitric oxide synthase (hiNOS)at 100 uM.
Test [7] addresses T4, Nitric oxide synthase 3 (Homo sapiens). Put plainly: Inhibition of cloned (from RNA) human endothelial constitutive Endothelial nitric oxide synthase (heNOS)at 100 uM.

pIC50: −log10 of the molar value.

T2 sequence (P29475 whole entry): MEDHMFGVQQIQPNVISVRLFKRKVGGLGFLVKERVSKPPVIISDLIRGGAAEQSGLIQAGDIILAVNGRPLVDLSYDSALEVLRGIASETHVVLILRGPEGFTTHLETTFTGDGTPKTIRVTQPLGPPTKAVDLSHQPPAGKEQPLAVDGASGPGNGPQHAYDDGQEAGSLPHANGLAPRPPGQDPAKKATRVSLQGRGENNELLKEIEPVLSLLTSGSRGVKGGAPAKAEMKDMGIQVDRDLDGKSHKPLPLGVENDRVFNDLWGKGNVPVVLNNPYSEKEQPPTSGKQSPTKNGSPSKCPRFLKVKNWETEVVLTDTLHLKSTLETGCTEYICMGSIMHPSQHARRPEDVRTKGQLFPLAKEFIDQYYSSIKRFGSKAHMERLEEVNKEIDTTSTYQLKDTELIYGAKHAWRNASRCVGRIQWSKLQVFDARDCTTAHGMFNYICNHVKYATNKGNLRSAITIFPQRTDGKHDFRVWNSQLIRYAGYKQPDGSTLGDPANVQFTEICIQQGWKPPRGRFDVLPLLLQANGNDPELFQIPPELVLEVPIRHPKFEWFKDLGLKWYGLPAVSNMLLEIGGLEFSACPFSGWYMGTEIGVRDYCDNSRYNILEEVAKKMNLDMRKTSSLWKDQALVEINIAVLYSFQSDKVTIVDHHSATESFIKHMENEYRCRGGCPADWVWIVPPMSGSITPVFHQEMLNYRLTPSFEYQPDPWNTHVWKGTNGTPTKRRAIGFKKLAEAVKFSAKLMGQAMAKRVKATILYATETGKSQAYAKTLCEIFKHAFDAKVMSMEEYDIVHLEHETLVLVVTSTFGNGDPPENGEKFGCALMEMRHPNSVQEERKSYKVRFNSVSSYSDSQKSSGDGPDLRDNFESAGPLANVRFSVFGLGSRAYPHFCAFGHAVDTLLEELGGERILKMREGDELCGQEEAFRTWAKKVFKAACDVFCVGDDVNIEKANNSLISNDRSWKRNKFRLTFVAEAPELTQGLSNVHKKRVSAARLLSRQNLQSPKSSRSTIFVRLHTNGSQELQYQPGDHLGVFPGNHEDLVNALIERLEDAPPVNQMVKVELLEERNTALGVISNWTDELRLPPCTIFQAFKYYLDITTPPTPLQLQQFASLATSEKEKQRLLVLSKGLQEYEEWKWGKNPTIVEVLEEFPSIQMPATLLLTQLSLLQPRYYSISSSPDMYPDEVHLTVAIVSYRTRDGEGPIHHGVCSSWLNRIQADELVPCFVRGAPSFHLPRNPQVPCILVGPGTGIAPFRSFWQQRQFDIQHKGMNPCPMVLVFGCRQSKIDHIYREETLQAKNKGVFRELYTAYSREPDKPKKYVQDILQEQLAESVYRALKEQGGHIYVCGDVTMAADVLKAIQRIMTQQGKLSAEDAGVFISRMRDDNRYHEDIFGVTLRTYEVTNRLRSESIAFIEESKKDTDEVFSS
T1 sequence (P35228 whole entry): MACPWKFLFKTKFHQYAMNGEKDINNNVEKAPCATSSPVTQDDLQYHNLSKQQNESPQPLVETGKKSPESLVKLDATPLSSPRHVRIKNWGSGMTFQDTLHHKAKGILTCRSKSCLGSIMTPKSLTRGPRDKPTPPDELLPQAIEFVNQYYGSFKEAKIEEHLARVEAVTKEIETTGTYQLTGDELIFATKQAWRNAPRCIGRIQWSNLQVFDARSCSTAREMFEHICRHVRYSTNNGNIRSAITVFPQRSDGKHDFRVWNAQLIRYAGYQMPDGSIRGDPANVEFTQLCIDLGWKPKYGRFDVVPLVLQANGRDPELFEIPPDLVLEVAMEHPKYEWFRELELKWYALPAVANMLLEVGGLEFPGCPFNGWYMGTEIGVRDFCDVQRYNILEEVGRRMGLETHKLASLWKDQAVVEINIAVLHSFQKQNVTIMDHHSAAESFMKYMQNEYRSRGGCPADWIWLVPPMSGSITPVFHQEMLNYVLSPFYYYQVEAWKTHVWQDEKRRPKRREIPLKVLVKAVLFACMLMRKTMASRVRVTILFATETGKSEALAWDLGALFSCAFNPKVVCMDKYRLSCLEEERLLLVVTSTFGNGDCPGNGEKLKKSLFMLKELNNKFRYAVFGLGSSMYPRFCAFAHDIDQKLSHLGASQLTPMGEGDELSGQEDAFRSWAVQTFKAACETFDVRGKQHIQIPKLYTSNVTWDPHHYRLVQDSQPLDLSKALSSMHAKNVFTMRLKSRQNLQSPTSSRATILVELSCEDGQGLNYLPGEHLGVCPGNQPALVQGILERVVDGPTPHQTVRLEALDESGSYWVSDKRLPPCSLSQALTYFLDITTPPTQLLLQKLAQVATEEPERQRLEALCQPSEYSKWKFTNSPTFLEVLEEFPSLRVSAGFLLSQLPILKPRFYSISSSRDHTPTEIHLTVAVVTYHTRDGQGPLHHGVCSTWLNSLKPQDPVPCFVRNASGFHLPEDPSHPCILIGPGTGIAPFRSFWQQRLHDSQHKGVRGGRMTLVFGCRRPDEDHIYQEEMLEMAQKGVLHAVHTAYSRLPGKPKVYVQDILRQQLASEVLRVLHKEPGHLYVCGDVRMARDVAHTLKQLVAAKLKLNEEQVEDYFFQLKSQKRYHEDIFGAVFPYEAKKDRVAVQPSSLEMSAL

A word on the pIC50: it is −log10 of the IC50, conventionally taken in molar units. A low value points to a high IC50. With `CCCCCC1N=C(N)CC1C` (stereo in doubt; 10), the results for the pIC50 (in test [1]; against Nitric oxide synthase 1 [2]; against Nitric oxide synthase 3) were 6.44, 5.27 and 3.61, respectively.
For `NC1=NC(Cc2ccccc2)C(C(F)(F)F)C1` (stereo in doubt; 18), in that order: 4.13, 4.42 and 2.53.
Consider `CC1CC(N)=NC1Cc1ccccc1` (stereo in doubt; 11), for which the pIC50 was 5.52 in test [1], 5.08 against Nitric oxide synthase 1 [2] and 3.34 against Nitric oxide synthase 3.
The matching figures for `CCCCCC1N=C(N)CC1C(F)(F)F` (stereo in doubt; 22): 6.64, 5.60 and 3.67.
Turning to `CCC1CN=C(N)C1` (stereo unspecified), the values for the pIC50 (in test [1]; on Nitric oxide synthase 1 [2]; against Nitric oxide synthase 3) were 5.47, 5.26 and 4.53, respectively.
The matching figures for `CC1CN=C(N)C1` (stereo unspecified): 5.85, 5.33 and 4.85.
In the case of `CC1CC(N)=NC1Cc1ccccc1` (stereo in doubt; 16), the figures for the pIC50 (in test [1]; against Nitric oxide synthase 1 [2]; at Nitric oxide synthase 3) were 4.85, 4.95 and 3.19, respectively.
For `CC1CCN=C1N` (stereo unspecified), the results for the pIC50 (in test [1]; against Nitric oxide synthase 1 [2]; against Nitric oxide synthase 3) were 4.95, 5.52 and 5.04, respectively.
For `CCCCCC1N=C(N)CC1C` (stereo in doubt; 9), the pIC50 in test [1] was 6.04; at Nitric oxide synthase 1 [2], 5.88; at Nitric oxide synthase 3 it was 4.32.
The matching figures for `CCCCCC1N=C(N)CC1C` (stereo in doubt; 21): 5.35, 4.69 and 3.24.
The term inhibition denotes how much of the control response was suppressed. Lower therefore signals a response near the control. For `NC1=NC(Cc2ccccc2)CC1` (stereo unspecified), the inhibition in test [3] stood at 26%; in test [4] it was 16%; at Nitric oxide synthase 1 [5] it was 47%.
On to `CCCC1N=C(N)CC1C` (stereo unspecified), for which the pIC50 in test [1] was 6.52; at Nitric oxide synthase 1 [2], 6.41; against Nitric oxide synthase 3 it was 5.46.
For `NC1=NC(Cc2ccccc2)C(C(F)(F)F)C1` (stereo in doubt; 17), in that order: 4.66, 4.92 and 3.00.
For `CCCCCC1N=C(N)CC1C(F)(F)F` (stereo in doubt; 13), in that order: 5.00, 5.04 and 3.47.
As for `CCC1N=C(N)CC1C` (stereo unspecified), the negative-log IC50 (pIC50) in test [1] is 6.77; on Nitric oxide synthase 1 [2] it was 6.77; on Nitric oxide synthase 3, 5.80.
With `CC1CCC(N)=N1` (stereo unspecified), the negative logarithm of the IC50 (pIC50) in test [1] was 4.99; on Nitric oxide synthase 1 [2], 5.01; at Nitric oxide synthase 3, 4.60.
As for `CCCCCC1N=C(N)CC1(C)C` (stereo unspecified), the inhibition is 64% in test [6], 17% in test [4] and 46% against Nitric oxide synthase 1 [5].
Turning to `CCCCCC1N=C(N)CC1C(F)(F)F` (stereo in doubt; 14), the pIC50 in test [1] was 6.09; at Nitric oxide synthase 1 [2], 5.26; on Nitric oxide synthase 3, 3.41.
The matching figures for `CCCCC1N=C(N)CC1C` (stereo unspecified): 6.18, 6.07 and 4.63.
The matching figures for `CCCCCC1N=C(N)CC1C(F)(F)F` (stereo in doubt; 23): 5.12, 4.34 and 2.77.
Consider `CC1(C)CC(N)=NC1Cc1ccccc1` (stereo unspecified), for which the inhibition in test [3] is 12%; in test [7] it was 3%; against Nitric oxide synthase 1 [5], 17%.
`CCCCCC1N=C(N)CC1C` (stereo in doubt; 20): the results for the pIC50 (in test [1]; against Nitric oxide synthase 1 [2]; against Nitric oxide synthase 3) were 6.60, 5.49 and 3.65, respectively.
